The record followed here is patent publication US20250051338A1, “TYK2 DEGRADERS AND USES THEREOF” (Kymera Therapeutics, Inc., priority 2021, published 2025).

Common to all, as to format: cell-based
For assay [1], the target named is T1, TYK2 (Homo sapiens, UniProt P29597). As to the kind of experiment: TYK2 degradation MSD assay in human PBMC cells. On the set-up: endogenous in cells; host or cells: human PBMC. To be noted: 4 to 24 hours incubation, read-out: TYK2 MSD DC50 rating in human PBMC. In a few lines: (§1)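 DC50 values reflect dose-dependent decrease of TYK2 protein, read by MSD after cells were exposed to compound (top 1 to 10 μM, 1:3, 9 doses) for 4 to 24 hours at 37° C.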

Assay [2] addresses T1, TYK2. As to the kind of experiment: TYK2 degradation MSD assay in EBV-B cells. On the set-up: endogenous in cells; host or cells: EBV-B cells. To be noted: 4 to 24 hours incubation, read-out: TYK2 MSD DC50 rating in EBV-B. In a few lines:
as §1

Assay [3] deals with T1, TYK2. Description: TYK2 degradation MSD assay in OCI-LY10 cells. On the set-up: endogenous in cells; host or cells: EBV-B cells. To be noted: 4 to 24 hours incubation, read-out: TYK2 MSD DC50 rating in OCI-LY10. In a few lines:
as §1

T1 sequence (P29597 whole entry): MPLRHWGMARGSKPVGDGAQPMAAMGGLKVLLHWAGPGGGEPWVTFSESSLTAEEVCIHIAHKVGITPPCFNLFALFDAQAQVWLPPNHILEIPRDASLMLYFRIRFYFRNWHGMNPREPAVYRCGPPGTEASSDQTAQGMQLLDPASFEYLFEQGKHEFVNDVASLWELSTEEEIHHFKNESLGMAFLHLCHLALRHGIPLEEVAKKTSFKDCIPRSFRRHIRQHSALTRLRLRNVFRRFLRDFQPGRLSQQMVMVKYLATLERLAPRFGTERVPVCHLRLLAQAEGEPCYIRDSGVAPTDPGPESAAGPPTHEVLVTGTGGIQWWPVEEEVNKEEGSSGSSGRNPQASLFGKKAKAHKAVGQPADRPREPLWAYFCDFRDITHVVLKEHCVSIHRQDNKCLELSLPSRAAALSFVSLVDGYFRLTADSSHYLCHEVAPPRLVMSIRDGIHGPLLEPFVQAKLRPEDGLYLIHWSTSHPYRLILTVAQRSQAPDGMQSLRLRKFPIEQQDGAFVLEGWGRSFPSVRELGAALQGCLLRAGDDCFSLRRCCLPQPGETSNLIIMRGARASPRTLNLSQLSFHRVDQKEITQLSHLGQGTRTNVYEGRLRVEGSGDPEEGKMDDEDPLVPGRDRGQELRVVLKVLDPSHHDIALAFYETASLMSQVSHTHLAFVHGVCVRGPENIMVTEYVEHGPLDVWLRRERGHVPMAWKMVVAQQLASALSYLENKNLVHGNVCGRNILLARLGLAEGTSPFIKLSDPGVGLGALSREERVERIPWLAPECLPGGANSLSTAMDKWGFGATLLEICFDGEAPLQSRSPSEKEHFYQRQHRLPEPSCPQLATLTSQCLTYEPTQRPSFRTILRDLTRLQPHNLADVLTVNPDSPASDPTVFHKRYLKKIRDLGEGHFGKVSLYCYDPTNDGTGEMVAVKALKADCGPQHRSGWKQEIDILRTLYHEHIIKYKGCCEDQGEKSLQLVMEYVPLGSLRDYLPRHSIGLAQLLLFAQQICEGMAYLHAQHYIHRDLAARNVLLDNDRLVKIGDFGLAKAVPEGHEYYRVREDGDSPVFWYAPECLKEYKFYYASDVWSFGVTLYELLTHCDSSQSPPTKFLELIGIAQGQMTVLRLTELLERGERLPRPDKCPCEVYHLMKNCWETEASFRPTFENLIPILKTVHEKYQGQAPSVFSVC

By DC50 is commonly meant the midpoint of the concentration-degradation curve. Turning to `CNc1cc(Nc2cccc(-c3ccc(CN4CCN(c5cccc6c(N7CCC(=O)NC7=O)cncc56)CC4)cn3)c2)nn2c(C(=O)N[C@@H]3C[C@@H]3F)cnc12` [Example K467], the DC50 on TYK2 [1] is greater than 100 nM; at TYK2 [2] it was 10 to 100 nM; at TYK2 [3] it was greater than 100 nM.

As for `O=C1CCN(c2cnc3cc(CCOCCOCCOCCOCCNc4cc(Nc5cccn(-c6ccccn6)c5=O)nn5c(C(=O)N[C@@H]6C[C@@H]6F)cnc45)ccn23)C(=O)N1` [Example K468], the values for the DC50 at TYK2 [1], at TYK2 [2] and at TYK2 [3] were 10 to 100 nM, greater than 100 nM and greater than 100 nM, respectively.

Take `CNc1cc(Nc2cccc(-c3ccc(CN4CCN(c5ccc(-c6ccc7c(c6)n(C)c(=O)n7C6CCC(=O)NC6=O)cc5)CC4)cn3)c2OC)nn2c(C(=O)N[C@@H]3C[C@@H]3F)cnc12` (stereo partly drawn) [Example K479]: the DC50 was greater than 100 nM at TYK2 [1], less than 1 nM at TYK2 [2] and less than 1 nM on TYK2 [3].

On to `CNc1cc(-c2ccc(-c3ccc(CN4CCC(N5CC(N6CCN(c7ccc8c(c7)n(C)c(=O)n8C7CCC(=O)NC7=O)CC6)C5)CC4)cn3)cc2)nn2c(C(=O)N[C@@H]3C[C@@H]3F)cnc12` (stereo partly drawn) [Example K480], for which the values for the DC50 on TYK2 [1], at TYK2 [2] and at TYK2 [3] were greater than 100 nM, greater than 100 nM and less than 1 nM, respectively.

Take `CNc1cc(N(C)c2cccc(-c3ccc(CN4CCN(c5ccc(-c6ccc7c(c6)n(C)c(=O)n7C6CCC(=O)NC6=O)cc5)CC4)cn3)c2)nn2c(C(=O)N[C@@H]3C[C@@H]3F)cnc12` (stereo partly drawn) [Example K481]: the DC50 on TYK2 [1], at TYK2 [2] and on TYK2 [3] was greater than 100 nM each time.

With `CNc1cc(Nc2cccc(-c3ccc(CN4CCN(c5ccc(-c6ccc7c(c6)n(C)c(=O)n7C6CCC(=O)NC6=O)cc5)CC4)cn3)c2)nn2c(C(=O)NC3CC3OC)cnc12` (stereo not drawn) [Example K482], the DC50 at TYK2 [1] was greater than 100 nM; on TYK2 [2], greater than 100 nM; on TYK2 [3] it was 1 to 10 nM.

On to `CNc1cc(Nc2cccc(-c3ccc(CN4CCN(c5ccc(-c6ccc7c(c6)n(C)c(=O)n7C6CCC(=O)NC6=O)cc5)CC4)cn3)c2)nn2c(C(=O)NC3CCC3)cnc12` (stereo not drawn) [Example K483], for which the DC50 was greater than 100 nM on TYK2 [1], greater than 100 nM on TYK2 [2] and 1 to 10 nM at TYK2 [3].

`Cn1c(=O)n(C2CCC(=O)NC2=O)c2ccc(-c3ccc(N4CCN(Cc5ccc(-c6cccc(Nc7cc(C8CC8)c8ncc(C(=O)N[C@@H]9C[C@@H]9F)n8n7)c6)nc5)CC4)cc3)cc21` (stereo partly drawn) [Example K484]: the DC50 on TYK2 [1], on TYK2 [2] and at TYK2 [3] was greater than 100 nM in each case.

Regarding `CNc1cc(Nc2cccc(CN3CCN(c4ccc(-c5ccc6c(c5)n(C)c(=O)n6C5CCC(=O)NC5=O)cc4)CC3)c2)nn2c(C(=O)N[C@@H]3C[C@@H]3F)cnc12` (stereo partly drawn) [Example K486], the DC50 is greater than 100 nM at TYK2 [1], greater than 100 nM on TYK2 [2] and less than 1 nM on TYK2 [3].

Regarding `CNc1cc(Nc2cccc(-c3ccc(CN4CCC(N5CC(N6CCN(c7ccc8c(c7)n(C)c(=O)n8C7CCC(=O)NC7=O)CC6)C5)CC4)cn3)c2OC)nn2c(C(=O)N[C@@H]3C[C@@H]3F)cnc12` (stereo partly drawn) [Example K487], the DC50 is greater than 100 nM at TYK2 [1], greater than 100 nM on TYK2 [2] and less than 1 nM on TYK2 [3].

Turning to `CNc1cc(Nc2cccc(-c3ccc(CN4CCN(c5ccc(-c6cccc7c6n(C)c(=O)n7C6CCC(=O)NC6=O)cc5)CC4)cn3)c2OC)nn2c(C(=O)N[C@@H]3C[C@@H]3F)cnc12` (stereo partly drawn) [Example K488], the DC50 at TYK2 [1] was greater than 100 nM; at TYK2 [2], greater than 100 nM; at TYK2 [3], 1 to 10 nM.

As for `CNc1cc(Nc2cccc(-c3ccc(CN4CCN(C(=O)c5ccc(Cl)c(N6CCC(=O)NC6=O)c5)CC4)cn3)c2OC)nn2c(C(=O)N[C@@H]3C[C@@H]3F)cnc12` [Example K489], the DC50 on TYK2 [1], at TYK2 [2] and at TYK2 [3] was greater than 100 nM throughout.

In the case of `CNc1cc(Nc2cccc(CN3CCC(CN4CCN(c5ccc6c(c5)n(C)c(=O)n6C5CCC(=O)NC5=O)CC4)CC3)c2)nn2c(C(=O)N[C@@H]3C[C@@H]3F)cnc12` (stereo partly drawn) [Example K490], the DC50 on TYK2 [1] is greater than 100 nM; at TYK2 [2] it was greater than 100 nM; on TYK2 [3] it was less than 1 nM.

On to `CNc1cc(N2CCOc3c(-c4ccc(CN5CCN(c6ccc(-c7ccc8c(c7)n(C)c(=O)n8C7CCC(=O)NC7=O)cc6)CC5)cn4)cccc32)nn2c(C(=O)N[C@@H]3C[C@@H]3F)cnc12` (stereo partly drawn) [Example K491], for which the DC50 on TYK2 [1] was greater than 100 nM; at TYK2 [2] it was greater than 100 nM; at TYK2 [3] it was 10 to 100 nM.

As to `CNc1cc(-c2ccc(-c3ccc(CN4CCN(c5ccc(-c6ccc7c(c6)n(C)c(=O)n7C6CCC(=O)NC6=O)cc5)CC4)cc3)c3nccn23)nn2c(C(=O)N[C@@H]3C[C@@H]3C)cnc12` (stereo partly drawn) [Example K492], the figures for the DC50 on TYK2 [1], on TYK2 [2] and at TYK2 [3] were greater than 100 nM, greater than 100 nM and 10 to 100 nM, respectively.

For the compound `CNc1cc(-c2ccc(-c3ccc(CN4CCC(CN5CCN(c6ccc7c(c6)n(C)c(=O)n7C6CCC(=O)NC6=O)CC5)CC4)cn3)cc2)nn2c(C(=O)N[C@@H]3C[C@@H]3F)cnc12` (stereo partly drawn) [Example K493], the results for the DC50 at TYK2 [1], at TYK2 [2] and at TYK2 [3] were greater than 100 nM, greater than 100 nM and 1 to 10 nM, respectively.

As to `CNc1cc(N2CCc3c(-c4ccc(CN5CCN(c6ccc(-c7cccc8c7n(C)c(=O)n8C7CCC(=O)NC7=O)cc6)CC5)cn4)cccc32)nn2c(C(=O)N[C@@H]3C[C@@H]3F)cnc12` (stereo partly drawn) [Example K494], the DC50 is greater than 100 nM at TYK2 [1], greater than 100 nM on TYK2 [2] and 10 to 100 nM on TYK2 [3].

Consider `CNc1cc(Nc2cccn(-c3ccc(CN4CCN(c5ccc(-c6ccc7c(c6)n(C)c(=O)n7C6CCC(=O)NC6=O)cc5)CC4)cn3)c2=O)nn2c(C(=O)N[C@@H]3C[C@@H]3F)cnc12` (stereo partly drawn) [Example K495], for which the values for the DC50 on TYK2 [1], at TYK2 [2] and on TYK2 [3] were greater than 100 nM, greater than 100 nM and less than 1 nM, respectively.

Turning to `CNC1=CC(Nc2cccc(-c3ccc(CN4CCN(CC5CCN(C(=O)c6ccc(Cl)c(N7CCC(=O)NC7=O)c6)CC5)CC4)cn3)c2)=NC2C(C(=O)N[C@@H]3C[C@@H]3F)=CN=C12` (stereo partly drawn) [Example K496], the DC50 at TYK2 [1] is greater than 100 nM; at TYK2 [2], greater than 100 nM; at TYK2 [3] it was 1 to 10 nM.

For `CNc1cc(N2CCc3c(-c4ccc(CN5CC6(CCN(C(=O)c7ccc(Cl)c(N8CCC(=O)NC8=O)c7)CC6)C5)cn4)cccc32)nn2c(C(=O)N[C@@H]3C[C@@H]3F)cnc12` [Example K498], the DC50 is greater than 100 nM at TYK2 [1], less than 1 nM at TYK2 [2] and less than 1 nM at TYK2 [3].

Turning to `CNc1cc(Nc2cccc(-c3ccc(CN4CCN(c5ccc(-c6ccc7c(c6)n(C)c(=O)n7C6CCC(=O)NC6=O)cc5)CC4)cn3)c2)nn2c(C(=O)N[C@@H]3C[C@@H]3F)cnc12` (stereo partly drawn) [Example K499], the DC50 at TYK2 [1], at TYK2 [2] and at TYK2 [3] was greater than 100 nM throughout.

For the compound `CNc1cc(Nc2cccc(-c3ccc(CN4CC5(CCN(c6ccc(C7CCC(=O)NC7=O)cc6)CC5)C4)cn3)c2)nn2c(C(=O)N[C@@H]3C[C@@H]3F)cnc12` (stereo partly drawn) [Example K500], the DC50 on TYK2 [1], on TYK2 [2] and on TYK2 [3] was greater than 100 nM in each case.

Regarding `CNc1cc(N2CCCc3c(-c4ccc(CC5CCC(c6ccc(-c7ccc8c(c7)n(C)c(=O)n8C7CCC(=O)NC7=O)cc6)CC5)cn4)cccc32)nn2c(C(=O)N[C@@H]3C[C@@H]3F)cnc12` (stereo partly drawn) [Example K501], the DC50 at TYK2 [1] was greater than 100 nM; on TYK2 [2], greater than 100 nM; at TYK2 [3], 10 to 100 nM.

With `Cc1cc(Nc2cccc(-c3ccc(CN4CCN(c5ccc(-c6ccc7c(c6)n(C)c(=O)n7C6CCC(=O)NC6=O)cc5)CC4)cn3)c2)nn2c(C(=O)N[C@@H]3C[C@@H]3F)cnc12` (stereo partly drawn) [Example K502], the values for the DC50 at TYK2 [1], at TYK2 [2] and at TYK2 [3] were greater than 100 nM, greater than 100 nM and 1 to 10 nM, respectively.

Turning to `CNc1cc(Nc2cccc(N3CCC(CN4CCN(c5cccc6c(C7CCC(=O)NC7=O)cncc56)CC4)CC3)c2)nn2c(C(=O)N[C@@H]3C[C@@H]3F)cnc12` (stereo partly drawn) [Example K503], the DC50 on TYK2 [1], on TYK2 [2] and on TYK2 [3] was greater than 100 nM in each case.

Take `CNc1cc(Nc2cccc(-c3ccc(CN4CCN(CCCOc5ccc(C6CCC(=O)NC6=O)cc5)CC4)cn3)c2)nn2c(C(=O)N[C@@H]3C[C@@H]3F)cnc12` (stereo partly drawn) [Example K504]: the values for the DC50 on TYK2 [1], on TYK2 [2] and on TYK2 [3] were greater than 100 nM, less than 1 nM and greater than 100 nM, respectively.

As for `CNc1cc(N2CCc3c(-c4ccc(CN5CCN(c6ccc(-c7ccc8c(c7)n(C)c(=O)n8C7CCC(=O)NC7=O)cc6)CC5)cn4)cccc32)nn2c(C(=O)N[C@@H]3C[C@@H]3F)cnc12` (stereo partly drawn) [Example K505], the DC50 on TYK2 [1] is greater than 100 nM; on TYK2 [2], 10 to 100 nM; on TYK2 [3], 1 to 10 nM.

As for `CNc1cc(Nc2cccc(-c3ccc(CN4CC5(CCN(C(=O)c6ccc(Cl)c(N7CCC(=O)NC7=O)c6)CC5)C4)cn3)c2)nn2c(C(=O)N[C@@H]3C[C@@H]3F)cnc12` [Example K506], the DC50 at TYK2 [1] is greater than 100 nM; at TYK2 [2] it was 10 to 100 nM; on TYK2 [3] it was 1 to 10 nM.

As for `CNc1cc(Nc2cccc(-c3ccc(CN4CCC(CCc5cccc6c5n(C)c(=O)n6C5CCC(=O)NC5=O)CC4)cn3)c2)nn2c(C(=O)N[C@@H]3C[C@@H]3F)cnc12` (stereo partly drawn) [Example K507], the DC50 on TYK2 [1] was greater than 100 nM; at TYK2 [2], 1 to 10 nM; on TYK2 [3], less than 1 nM.

As to `CNc1cc(Nc2cccc(-c3ccc(CN4CCN(c5ccc(-c6ccc7c(c6)n(C)c(=O)n7C6CCC(=O)NC6=O)cc5)CC4)cn3)c2)nc2c(C(=O)N[C@@H]3C[C@@H]3F)cnn12` (stereo partly drawn) [Example K508], the figures for the DC50 at TYK2 [1], on TYK2 [2] and on TYK2 [3] were greater than 100 nM, 1 to 10 nM and less than 1 nM, respectively.
